Assays:
Experiment in all cases: Kinase profiling panel
Format in all cases: biochemical
IRAK4 = tested on: IRAK4
Protocol: (§1) Supplementary Table 2. ZT-1a kinase profiling data6.
(§2) ZT-1a was tested at 10 and 1 µM against a panel of 140 recombinant kinases in an enzymatic
(§3) activity-based assay performed by the International Centre for Kinase Profiling in the MRC
(§4) Protein Phosphorylation and Ubiquitylation Unit. Values represent % residual kinase activity

MKK6 = tested on: MKK6
Protocol: as §1, §2, §3, §4

CAMK1 = tested on: CAMK1
Protocol: as §1, §2, §3, §4

MST2 = tested on: MST2
Protocol: as §1, §2, §3, §4

ULK1 = tested on: ULK1
Protocol: as §1, §2, §3, §4

p38a MAPK = tested on: p38a MAPK
Protocol: as §1, §2, §3, §4

TLK1 = tested on: TLK1
Protocol: as §1, §2, §3, §4

MST3 = tested on: MST3
Protocol: as §1, §2, §3, §4

ABL = tested on: ABL
Protocol: as §1, §2, §3, §4

NUAK1 = tested on: NUAK1
Protocol: as §1, §2, §3, §4

ROCK 2 = tested on: ROCK 2
Protocol: as §1, §2, §3, §4

PKCz = tested on: PKCz
Protocol: as §1, §2, §3, §4

SmMLCK = tested on: SmMLCK
Protocol: as §1, §2, §3, §4

MNK2 = tested on: MNK2
Protocol: as §1, §2, §3, §4

PRAK = tested on: PRAK
Protocol: as §1, §2, §3, §4

CHK1 = tested on: CHK1
Protocol: as §1, §2, §3, §4

Aurora B = tested on: Aurora B
Protocol: as §1, §2, §3, §4

IRR = tested on: IRR
Protocol: as §1, §2, §3, §4

TTBK2 = tested on: TTBK2
Protocol: as §1, §2, §3, §4

SYK = tested on: SYK
Protocol: as §1, §2, §3, §4

PKA = tested on: PKA
Protocol: as §1, §2, §3, §4

MARK1 = tested on: MARK1
Protocol: as §1, §2, §3, §4

IGF-1R = tested on: IGF-1R
Protocol: as §1, §2, §3, §4

MAPKAP-K3 = tested on: MAPKAP-K3
Protocol: as §1, §2, §3, §4

CHK2 = tested on: CHK2
Protocol: as §1, §2, §3, §4

TrkA = tested on: TrkA
Protocol: as §1, §2, §3, §4

BRSK2 = tested on: BRSK2
Protocol: as §1, §2, §3, §4

NEK2a = tested on: NEK2a
Protocol: as §1, §2, §3, §4

MLK1 = tested on: MLK1
Protocol: as §1, §2, §3, §4

ERK5 = tested on: ERK5
Protocol: as §1, §2, §3, §4

EPH-A4 = tested on: EPH-A4
Protocol: as §1, §2, §3, §4

BTK = tested on: BTK
Protocol: as §1, §2, §3, §4

MARK3 = tested on: MARK3
Protocol: as §1, §2, §3, §4

PAK5 = tested on: PAK5
Protocol: as §1, §2, §3, §4

EPH-B3 = tested on: EPH-B3
Protocol: as §1, §2, §3, §4

DYRK3 = tested on: DYRK3
Protocol: as §1, §2, §3, §4

SGK1 = tested on: SGK1
Protocol: as §1, §2, §3, §4

HIPK1 = tested on: HIPK1
Protocol: as §1, §2, §3, §4

OSR1 = tested on: OSR1
Protocol: as §1, §2, §3, §4

ULK2 = tested on: ULK2
Protocol: as §1, §2, §3, §4

RIPK2 = tested on: RIPK2
Protocol: as §1, §2, §3, §4

MKK1 = tested on: MKK1
Protocol: as §1, §2, §3, §4

GCK = tested on: GCK
Protocol: as §1, §2, §3, §4

TESK1 = tested on: TESK1
Protocol: as §1, §2, §3, §4

SMILES: Cc1cc(C(C#N)c2ccc(Cl)cc2)c(Cl)cc1NC(=O)c1cc(Cl)ccc1O (stereo not shown) [ZT-1a, 5-chloro-N-(5-chloro-4-((4-chlorophenyl)(cyano)methyl)-2-methylphenyl)-2-hydroxybenzamide]
- % residual kinase activity (IRAK4; 1 µM): 127±0%
- % residual kinase activity (IRAK4; 10 µM): 127±11%
- % residual kinase activity (MKK6; 1 µM): 102±12%
- % residual kinase activity (MKK6; 10 µM): 82±16%
- % residual kinase activity (CAMK1; 1 µM): 60±5%
- % residual kinase activity (CAMK1; 10 µM): 71±31%
- % residual kinase activity (MST2; 1 µM): 115±4%
- % residual kinase activity (MST2; 10 µM): 113±2%
- % residual kinase activity (ULK1; 1 µM): 87±10%
- % residual kinase activity (ULK1; 10 µM): 89±13%
- % residual kinase activity (p38a MAPK; 1 µM): 128±7%
- % residual kinase activity (p38a MAPK; 10 µM): 113±2%
- % residual kinase activity (TLK1; 1 µM): 130±13%
- % residual kinase activity (TLK1; 10 µM): 124±4%
- % residual kinase activity (MST3; 1 µM): 109±8%
- % residual kinase activity (MST3; 10 µM): 113±15%
- % residual kinase activity (ABL; 1 µM): 85±4%
- % residual kinase activity (ABL; 10 µM): 68±16%
- % residual kinase activity (NUAK1; 1 µM): 52±7%
- % residual kinase activity (NUAK1; 10 µM): 61±16%
- % residual kinase activity (ROCK 2; 1 µM): 109±6%
- % residual kinase activity (ROCK 2; 10 µM): 101±10%
- % residual kinase activity (PKCz; 1 µM): 80±11%
- % residual kinase activity (PKCz; 10 µM): 122±28%
- % residual kinase activity (SmMLCK; 1 µM): 99±3%
- % residual kinase activity (SmMLCK; 10 µM): 98±9%
- % residual kinase activity (MNK2; 1 µM): 100±7%
- % residual kinase activity (MNK2; 10 µM): 105±3%
- % residual kinase activity (PRAK; 1 µM): 78±13%
- % residual kinase activity (PRAK; 10 µM): 41±7%
- % residual kinase activity (CHK1; 1 µM): 111±11%
- % residual kinase activity (CHK1; 10 µM): 109±8%
- % residual kinase activity (Aurora B; 1 µM): 119±6%
- % residual kinase activity (Aurora B; 10 µM): 92±15%
- % residual kinase activity (IRR; 1 µM): 105±5%
- % residual kinase activity (IRR; 10 µM): 95±4%
- % residual kinase activity (TTBK2; 1 µM): 101±32%
- % residual kinase activity (TTBK2; 10 µM): 98±34%
- % residual kinase activity (SYK; 1 µM): 93±12%
- % residual kinase activity (SYK; 10 µM): 93±1%
- % residual kinase activity (PKA; 1 µM): 80±11%
- % residual kinase activity (PKA; 10 µM): 50±2%
- % residual kinase activity (MARK1; 1 µM): 104±16%
- % residual kinase activity (MARK1; 10 µM): 91±5%
- % residual kinase activity (IGF-1R; 1 µM): 145±2%
- % residual kinase activity (IGF-1R; 10 µM): 123±3%
- % residual kinase activity (MAPKAP-K3; 1 µM): 96±26%
- % residual kinase activity (MAPKAP-K3; 10 µM): 72±8%
- % residual kinase activity (CHK2; 1 µM): 106±1%
- % residual kinase activity (CHK2; 10 µM): 68±6%
- % residual kinase activity (TrkA; 1 µM): 108±9%
- % residual kinase activity (TrkA; 10 µM): 91±7%
- % residual kinase activity (BRSK2; 1 µM): 115±14%
- % residual kinase activity (BRSK2; 10 µM): 104±0%
- % residual kinase activity (NEK2a; 1 µM): 85±12%
- % residual kinase activity (NEK2a; 10 µM): 91±6%
- % residual kinase activity (MLK1; 1 µM): 94±4%
- % residual kinase activity (MLK1; 10 µM): 81±21%
- % residual kinase activity (ERK5; 1 µM): 120±9%
- % residual kinase activity (ERK5; 10 µM): 114±5%
- % residual kinase activity (EPH-A4; 1 µM): 59±33%
- % residual kinase activity (EPH-A4; 10 µM): 90±11%
- % residual kinase activity (BTK; 1 µM): 113±1%
- % residual kinase activity (BTK; 10 µM): 73±2%
- % residual kinase activity (MARK3; 1 µM): 71±6%
- % residual kinase activity (MARK3; 10 µM): 68±8%
- % residual kinase activity (PAK5; 1 µM): 93±26%
- % residual kinase activity (PAK5; 10 µM): 93±4%
- % residual kinase activity (EPH-B3; 1 µM): 88±6%
- % residual kinase activity (EPH-B3; 10 µM): 84±6%
- % residual kinase activity (DYRK3; 1 µM): 113±6%
- % residual kinase activity (DYRK3; 10 µM): 56±15%
- % residual kinase activity (SGK1; 1 µM): 73±14%
- % residual kinase activity (SGK1; 10 µM): 58±5%
- % residual kinase activity (HIPK1; 1 µM): 98±13%
- % residual kinase activity (HIPK1; 10 µM): 90±4%
- % residual kinase activity (OSR1; 1 µM): 106±9%
- % residual kinase activity (OSR1; 10 µM): 98±3%
- % residual kinase activity (ULK2; 1 µM): 110±11%
- % residual kinase activity (ULK2; 10 µM): 49±9%
- % residual kinase activity (RIPK2; 1 µM): 128±5%
- % residual kinase activity (RIPK2; 10 µM): 120±3%
- % residual kinase activity (MKK1; 1 µM): 106±2%
- % residual kinase activity (MKK1; 10 µM): 114±17%
- % residual kinase activity (GCK; 1 µM): 112±4%
- % residual kinase activity (GCK; 10 µM): 97±3%
- % residual kinase activity (TESK1; 1 µM): 109±3%
- % residual kinase activity (TESK1; 10 µM): 77±10%
